This is an account of results in patent US12226412B2, “Heteroaryl-ketone fused azadecalin glucocorticoid receptor modulators” (Corcept Therapeutics, Inc., priority 2012, dated 2025).

In assay [1] the test system is induction of TAT by dexamethasone in HepG2 cells. The assay can be described thus: HepG2 tyrosine aminotransferase (TAT) assay. In kind it is cell-based, human. The note with it: HepG2 cells, challenge of 100 nM dexamethasone; Ki from IC50 by Cheng and Prusoff equation.
The next assay concerns the target T1, human recombinant GR (Homo sapiens, UniProt P04150).
T1 construct: purchased PanVera P2812
T1 sequence (P04150 1-777): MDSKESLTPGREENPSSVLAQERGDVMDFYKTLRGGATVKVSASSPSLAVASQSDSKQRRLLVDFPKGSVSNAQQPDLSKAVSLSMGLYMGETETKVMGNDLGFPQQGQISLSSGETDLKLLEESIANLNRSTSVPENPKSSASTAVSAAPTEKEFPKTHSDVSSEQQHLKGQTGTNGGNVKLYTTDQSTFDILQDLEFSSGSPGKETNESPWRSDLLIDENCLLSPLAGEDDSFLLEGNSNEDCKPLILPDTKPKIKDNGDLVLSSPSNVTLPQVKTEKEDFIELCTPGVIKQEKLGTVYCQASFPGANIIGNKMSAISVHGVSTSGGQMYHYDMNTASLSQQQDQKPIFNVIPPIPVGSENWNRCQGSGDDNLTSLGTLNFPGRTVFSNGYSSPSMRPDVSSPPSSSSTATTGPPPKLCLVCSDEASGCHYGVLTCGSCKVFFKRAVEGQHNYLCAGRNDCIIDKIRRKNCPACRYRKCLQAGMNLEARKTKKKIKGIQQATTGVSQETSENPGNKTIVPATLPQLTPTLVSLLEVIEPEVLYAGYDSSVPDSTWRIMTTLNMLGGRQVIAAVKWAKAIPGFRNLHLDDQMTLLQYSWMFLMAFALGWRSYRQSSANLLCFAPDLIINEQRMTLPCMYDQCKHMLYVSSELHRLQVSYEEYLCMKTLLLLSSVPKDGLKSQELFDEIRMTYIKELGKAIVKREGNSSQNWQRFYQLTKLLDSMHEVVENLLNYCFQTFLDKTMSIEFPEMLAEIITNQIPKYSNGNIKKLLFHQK
The assay can be described thus: Human glucocorticoid receptor (GR) fluorescence polarisation (FP) binding assay. The conditions noted are these: human recombinant GR, fluorescence polarisation binding assay; read-out: GR binding. The procedure, abridged: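 Competition fluorescence polarisation: 0.5 nM GS Red labelled glucocorticoid and 1 nM recombinant human GR with 8-point half-log compound series, 1% DMSO, 4 h room temperature, potassium phosphate pH 7.4 buffer with molybdate, EDTA, DTT. Affinity derived from the drop in polarisation, normalised to blank wells.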
(Polarisation of emitted light reports the rotation of a fluorescent probe.)

Consider `Cn1nncc1S(=O)(=O)N1CCC2=Cc3c(cnn3-c3ccc(F)cc3)C[C@]2(C(=O)c2cc(C(F)(F)F)ccn2)C1` [Example 11CF, (R)-(1-(4-fluorophenyl)-6-((1-methyl-1H-1,2,3-triazol-5-yl)sulfonyl)-4,4a,5,6,7,8-hexahydro-1H-pyrazolo[3,4-g]isoquinolin-4a-yl)(4-(trifluoromethyl)pyridin-2-yl)methanone], for which the Ki in assay [1] is 20 to 100 nM; at human recombinant GR, > 1 nM.

`Cn1cc(S(=O)(=O)N2CCC3=Cc4c(cnn4-c4ccc(F)cc4)C[C@]3(C(=O)c3cc(C(F)(F)F)ccn3)C2)nn1` [Example 11CG, (R)-(1-(4-fluorophenyl)-6-((1-methyl-1H-1,2,3-triazol-4-yl)sulfonyl)-4,4a,5,6,7,8-hexahydro-1H-pyrazolo[3,4-g]isoquinolin-4a-yl)(4-(trifluoromethyl)pyridin-2-yl)methanone]: the Ki is < 20 nM in assay [1] and < 0.5 nM on human recombinant GR.

Regarding `CCn1ncc(S(=O)(=O)N2CCC3=Cc4c(cnn4-c4ccc(F)cc4)C[C@]3(C(=O)c3ccccn3)C2)n1` [Example 11CH, (R)-(6-((2-ethyl-2H-1,2,3-triazol-4-yl)sulfonyl)-1-(4-fluorophenyl)-4,4a,5,6,7,8-hexahydro-1H-pyrazolo[3,4-g]isoquinolin-4a-yl)(pyridin-2-yl)methanone], the figures for the Ki (in assay [1]; at human recombinant GR) were < 20 nM and < 0.5 nM, respectively.

Regarding `CCn1nncc1S(=O)(=O)N1CCC2=Cc3c(cnn3-c3ccc(F)cc3)C[C@]2(C(=O)c2ccccn2)C1` [Example 11CI, (R)-(6-((1-ethyl-1H-1,2,3-triazol-5-yl)sulfonyl)-1-(4-fluorophenyl)-4,4a,5,6,7,8-hexahydro-1H-pyrazolo[3,4-g]isoquinolin-4a-yl)(pyridin-2-yl)methanone], the Ki was 20 to 100 nM in assay [1] and > 1 nM on human recombinant GR.

For the compound `CCn1cc(S(=O)(=O)N2CCC3=Cc4c(cnn4-c4ccc(F)cc4)C[C@]3(C(=O)c3ccccn3)C2)nn1` [Example 11CJ, (R)-(6-((1-ethyl-1H-1,2,3-triazol-4-yl)sulfonyl)-1-(4-fluorophenyl)-4,4a,5,6,7,8-hexahydro-1H-pyrazolo[3,4-g]isoquinolin-4a-yl)(pyridin-2-yl)methanone], the Ki is 20 to 100 nM in assay [1] and < 0.5 nM on human recombinant GR.

Turning to `CCn1ncc(S(=O)(=O)N2CCC3=Cc4c(cnn4-c4ccc(F)cc4)C[C@]3(C(=O)c3cc(C(F)(F)F)ccn3)C2)n1` [Example 11CK, (R)-(6-((2-ethyl-2H-1,2,3-triazol-4-yl)sulfonyl)-1-(4-fluorophenyl)-4,4a,5,6,7,8-hexahydro-1H-pyrazolo[3,4-g]isoquinolin-4a-yl)(4-(trifluoromethyl)pyridin-2-yl)methanone], the Ki in assay [1] was < 20 nM; on human recombinant GR it was < 0.5 nM.

Consider `CCn1nncc1S(=O)(=O)N1CCC2=Cc3c(cnn3-c3ccc(F)cc3)C[C@]2(C(=O)c2cc(C(F)(F)F)ccn2)C1` [Example 11CL, (R)-(6-((1-ethyl-1H-1,2,3-triazol-5-yl)sulfonyl)-1-(4-fluorophenyl)-4,4a,5,6,7,8-hexahydro-1H-pyrazolo[3,4-g]isoquinolin-4a-yl)(4-(trifluoromethyl)pyridin-2-yl)methanone], for which the values for the Ki (in assay [1]; on human recombinant GR) were 20 to 100 nM and > 1 nM, respectively.

As for `CCn1cc(S(=O)(=O)N2CCC3=Cc4c(cnn4-c4ccc(F)cc4)C[C@]3(C(=O)c3cc(C(F)(F)F)ccn3)C2)nn1` [Example 11CM, (R)-(6-((1-ethyl-1H-1,2,3-triazol-4-yl)sulfonyl)-1-(4-fluorophenyl)-4,4a,5,6,7,8-hexahydro-1H-pyrazolo[3,4-g]isoquinolin-4a-yl)(4-(trifluoromethyl)pyridin-2-yl)methanone], the Ki in assay [1] is < 20 nM; on human recombinant GR, < 0.5 nM.

As to `CCCn1ncc(S(=O)(=O)N2CCC3=Cc4c(cnn4-c4ccc(F)cc4)C[C@]3(C(=O)c3ccccn3)C2)n1` [Example 11CN, (R)-(1-(4-fluorophenyl)-6-((2-propyl-2H-1,2,3-triazol-4-yl)sulfonyl)-4,4a,5,6,7,8-hexahydro-1H-pyrazolo[3,4-g]isoquinolin-4a-yl)(pyridin-2-yl)methanone], the Ki is < 20 nM in assay [1] and < 0.5 nM on human recombinant GR.

Consider `CCCn1nncc1S(=O)(=O)N1CCC2=Cc3c(cnn3-c3ccc(F)cc3)C[C@]2(C(=O)c2ccccn2)C1` [Example 11CO, (R)-(1-(4-fluorophenyl)-6-((1-propyl-1H-1,2,3-triazol-5-yl)sulfonyl)-4,4a,5,6,7,8-hexahydro-1H-pyrazolo[3,4-g]isoquinolin-4a-yl)(pyridin-2-yl)methanone], for which the results for the Ki (in assay [1]; on human recombinant GR) were 20 to 100 nM and > 1 nM, respectively.

Turning to `CCCn1cc(S(=O)(=O)N2CCC3=Cc4c(cnn4-c4ccc(F)cc4)C[C@]3(C(=O)c3ccccn3)C2)nn1` [Example 11CP, (R)-(1-(4-fluorophenyl)-6-((1-propyl-1H-1,2,3-triazol-4-yl)sulfonyl)-4,4a,5,6,7,8-hexahydro-1H-pyrazolo[3,4-g]isoquinolin-4a-yl)(pyridin-2-yl)methanone], the Ki in assay [1] was < 20 nM; on human recombinant GR, < 0.5 nM.

For `CCCn1ncc(S(=O)(=O)N2CCC3=Cc4c(cnn4-c4ccc(F)cc4)C[C@]3(C(=O)c3cscn3)C2)n1` [Example 11CQ, (R)-(1-(4-fluorophenyl)-6-((2-propyl-2H-1,2,3-triazol-4-yl)sulfonyl)-4,4a,5,6,7,8-hexahydro-1H-pyrazolo[3,4-g]isoquinolin-4a-yl)(thiazol-4-yl)methanone], the Ki was < 20 nM in assay [1] and < 0.5 nM at human recombinant GR.

Consider `CCCn1nncc1S(=O)(=O)N1CCC2=Cc3c(cnn3-c3ccc(F)cc3)C[C@]2(C(=O)c2cscn2)C1` [Example 11CR, (R)-(1-(4-fluorophenyl)-6-((1-propyl-1H-1,2,3-triazol-5-yl)sulfonyl)-4,4a,5,6,7,8-hexahydro-1H-pyrazolo[3,4-g]isoquinolin-4a-yl)(thiazol-4-yl)methanone], for which the Ki in assay [1] was 20 to 100 nM; at human recombinant GR, 0.5 to 1 nM.

For `CCCn1cc(S(=O)(=O)N2CCC3=Cc4c(cnn4-c4ccc(F)cc4)C[C@]3(C(=O)c3cscn3)C2)nn1` [Example 11CS, (R)-(1-(4-fluorophenyl)-6-((1-propyl-1H-1,2,3-triazol-4-yl)sulfonyl)-4,4a,5,6,7,8-hexahydro-1H-pyrazolo[3,4-g]isoquinolin-4a-yl)(thiazol-4-yl)methanone], the Ki in assay [1] was < 20 nM; at human recombinant GR it was < 0.5 nM.

For `CC(C)n1ncc(S(=O)(=O)N2CCC3=Cc4c(cnn4-c4ccc(F)cc4)C[C@]3(C(=O)c3ccccn3)C2)n1` [Example 11CT, (R)-(1-(4-fluorophenyl)-6-((2-isopropyl-2H-1,2,3-triazol-4-yl)sulfonyl)-4,4a,5,6,7,8-hexahydro-1H-pyrazolo[3,4-g]isoquinolin-4a-yl)(pyridin-2-yl)methanone], the Ki in assay [1] was < 20 nM; on human recombinant GR, < 0.5 nM.

Consider `CC(C)n1nncc1S(=O)(=O)N1CCC2=Cc3c(cnn3-c3ccc(F)cc3)C[C@]2(C(=O)c2ccccn2)C1` [Example 11CU, (R)-(1-(4-fluorophenyl)-6-((1-isopropyl-1H-1,2,3-triazol-5-yl)sulfonyl)-4,4a,5,6,7,8-hexahydro-1H-pyrazolo[3,4-g]isoquinolin-4a-yl)(pyridin-2-yl)methanone], for which the Ki in assay [1] fell in the range of 20 to 100 nM; at human recombinant GR, 0.5 to 1 nM.

For `CC(C)n1cc(S(=O)(=O)N2CCC3=Cc4c(cnn4-c4ccc(F)cc4)C[C@]3(C(=O)c3ccccn3)C2)nn1` [Example 11CV, (R)-(1-(4-fluorophenyl)-6-((1-isopropyl-1H-1,2,3-triazol-4-yl)sulfonyl)-4,4a,5,6,7,8-hexahydro-1H-pyrazolo[3,4-g]isoquinolin-4a-yl)(pyridin-2-yl)methanone], the Ki in assay [1] is 20 to 100 nM; on human recombinant GR, < 0.5 nM.

In the case of `CCn1nccc1S(=O)(=O)N1CCC2=Cc3c(cnn3-c3ccc(F)cc3)C[C@]2(C(=O)c2cscn2)C1` [Example 11CW, (R)-(6-((1-ethyl-1H-pyrazol-5-yl)sulfonyl)-1-(4-fluorophenyl)-4,4a,5,6,7,8-hexahydro-1H-pyrazolo[3,4-g]isoquinolin-4a-yl)(thiazol-4-yl)methanone], the Ki in assay [1] was 20 to 100 nM; at human recombinant GR, < 0.5 nM.

In the case of `CCCn1cc(S(=O)(=O)N2CCC3=Cc4c(cnn4-c4ccc(F)cc4)C[C@]3(C(=O)c3cc(C(F)(F)F)ccn3)C2)cn1` [Example 11CX, (R)-(1-(4-fluorophenyl)-6-((1-propyl-1H-pyrazol-4-yl)sulfonyl)-4,4a,5,6,7,8-hexahydro-1H-pyrazolo[3,4-g]isoquinolin-4a-yl)(4-(trifluoromethyl)pyridin-2-yl)methanone], the Ki in assay [1] was < 20 nM; on human recombinant GR it was < 0.5 nM.
